The METLIN SMRT retention time set (Domingo-Almenara et al. 2019)

Assay: gradient 5% acetonitrile 3 min, to 50% in 2 min, to 85% in 15 min, held 3 min, 100 µL/min
Conditions: column: Zorbax Extend-C18 2.1 x 50 mm; eluents: water / acetonitrile, 0.1% formic acid
Summary of the method: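 Retention time was recorded from adduct peaks, which were picked computationally and each inspected manually. Pure standards ran in mixtures of ~100 molecules on HPLC coupled to a quadrupole time-of-flight mass spectrometer, in positive and negative ionization mode, through a Zorbax Extend-C18 column (2.1 × 50 mm, 1.8 μm) at 100 μL/min. Eluents were water and acetonitrile, each with 0.1% formic acid.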

Structure (SMILES) | RP-LC retention time
Cc1ccc(NC(=O)N2CC(c3nc(C)no3)C3(CCOCC3)C2)c(Cl)c1 (stereo unspecified) | 796 s
Cc1ncoc1C(=O)N1CCC(N2C(=O)C(OCC3CC3)C23CCOCC3)CC1 (stereo unspecified) | 634 s
Cc1ccc(S(=O)(=O)NCCSc2ncccn2)cc1 | 727 s
O=C(c1cc(-c2cccnc2)n[nH]1)N1CCN(C(=O)C2CC2)CC1 | 565 s
O=C(CN1C(=O)CCC1=O)Nc1nc(-c2ccc(Cl)cc2Cl)cs1 | 850 s
CN(C1CCc2nn(CC3CC3)c(=O)n2CC1)S(=O)(=O)c1cccc(Cl)c1 (stereo unspecified) | 818 s
O=C1OCC/C1=C\c1ccc2c(c1)OCO2 | 830 s
CCc1c(C(=O)O)nnn1-c1ccc2c(c1)CCC2 | 796 s
CC(C)C(=O)Nc1cccn2nc(C(C)C)nc12 | 780 s
Cc1ccc(N2C(=O)CCS2(=O)=O)cc1S(=O)(=O)NCCc1c[nH]c2ccccc12 | 799 s
Cc1nn(-c2ccc(F)cc2)c2nc(N3CCCC(C(=O)NCc4ccc(F)cc4)C3)sc12 (stereo unspecified) | 1110 s
CN(C)CCNC(=O)CN1C(=O)C2CCCCN2c2ccc(C(=O)N3CCCCC3)cc21 (stereo unspecified) | 619 s
Cc1[nH]c(-c2ccccc2)cc1C(=O)NC1CCCC1 | 845 s
O=C(Nc1cccc(C(F)(F)F)c1)N1CCCC(Cn2cnc3cccnc32)C1 (stereo unspecified) | 751 s
CCN1C(=O)c2cc(S(=O)(=O)NCc3cccc(C)c3)ccc2Oc2cccnc21 | 1030 s
O=C(NCCCc1ccccc1)c1nc(Cn2c(=O)oc3ccccc32)no1 | 952 s
Cc1ccc(C)c(-c2coc(-c3ccc(NC(=O)c4ccc(Br)o4)cc3)n2)c1 | 1310 s
O=C(CCc1ccccc1)NCCn1c(C(F)(F)F)nc2cccnc21 | 998 s
Cc1ccn2cc(-c3ccc(NC(=O)c4ccccc4)cc3)nc2n1 | 636 s
COc1ccc(NC(=O)N2CCC3(C2)C(=O)N(C)c2ccccc23)c(OC)c1 (stereo unspecified) | 776 s
Cc1ccc(NC(=O)C2CCCN(C(=O)C3Sc4ccccc4NC3=O)C2)c(C)c1 (stereo unspecified) | 762 s
NC(=O)C1CCCN(C(=O)c2ccc(F)cc2F)C1 (stereo unspecified) | 599 s
CC(C)OCCCNC(=O)CCC(=O)N1CC2CCCN2c2ccccc21 (stereo unspecified) | 822 s

Structure (SMILES) | RP-LC retention time
COc1ccc(-c2cn3ccn(-c4ccc(Cl)cc4)c(=O)c3n2)cc1 | 828 s
CN1C(=O)c2cccnc2Sc2cc(C(=O)NC3CCCC3)ccc21 | 726 s
CCc1ccccc1S(=O)(=O)N1CCC2(CC1)C(=O)N(CC)c1ccccc12 | 1130 s
CCOc1ccc(CNC(=O)Cn2ccc3ccc(N4CCOCC4)nc32)cc1 | 894 s
Cc1ccsc1C(=O)N1CCC2(CC1)NCc1ccccc1-n1ccnc12 | 588 s
CC(C)(OCc1nn(Cc2ccccc2)c2ccccc12)C(=O)O | 937 s
O=C(NCCc1c[nH]c2ccccc12)c1cc2cccnc2n(Cc2ccccc2)c1=O | 1070 s
CN(C)CCn1c2c(c(SCC(=O)Nc3ccc(Cl)cc3)nc1=O)CCC2 | 656 s
CN(C)c1nc2cc(C(=O)N3CCC4(CC3)OCCO4)sc2n1-c1ccccc1 | 647 s
O=C(NCCN1CCCC1)c1cccc(N2CCNC(c3ccccc3)C2)n1 (stereo unspecified) | 553 s
O=C(NC1CCCC1)C1CCCN(C(=O)c2cc(-c3ccccn3)n[nH]2)C1 (stereo unspecified) | 616 s
O=C(c1ccc(-c2ccsc2)nc1)N1CCCC1 | 716 s
CCC(=O)N1CCc2cc(N3CC(C(=O)Nc4cccc(F)c4)CC3=O)ccc21 (stereo unspecified) | 763 s
CC(NC(=O)c1cc2ccccc2[nH]1)C(=O)N1CCN(c2ccccn2)CC1 (stereo unspecified) | 612 s
CCOc1ccccc1CNC(=O)C1CCN(c2nccnc2Sc2cccc(C)c2)CC1 | 1170 s
O=C(Cn1c(=O)c2cccn2c2ccc(F)cc21)NCCC1=CCCCC1 | 952 s
O=C1CC(c2ccccc2Cl)Cc2nc(N3CCN(Cc4ccc5c(c4)OCO5)CC3)ncc21 (stereo unspecified) | 765 s
CCOC(=O)c1nn(-c2ccc(F)cc2)c(=O)cc1NCC1CCCO1 (stereo unspecified) | 766 s
CCCN(C(=O)C1CCCN(c2ncnc3c2nc2n3CCCCC2)C1)c1ccc(F)cc1 (stereo unspecified) | 930 s
Cc1ccccc1S(=O)(=O)N1CCn2c(nn(CC3CC3)c2=O)C1 | 766 s
COc1ccc(Cl)cc1S(=O)(=O)N1CCC(C(N)=O)CC1 | 660 s
CC1(C)N=C(N)N=C(N)N1c1ccc(CCCCc2ccc(Cl)cc2Cl)cc1 | 878 s
Nc1ccc(S(=O)(=O)NCC2CCCCO2)cc1 (stereo unspecified) | 733 s

Structure (SMILES) | RP-LC retention time
CC1CCN(S(=O)(=O)c2ccccc2-c2nc(-c3ccccc3)no2)CC1 | 1200 s
Cc1noc(-c2ccc(S(=O)(=O)N3CCN(c4ccccn4)CC3)s2)c1C | 730 s
CCC1Oc2ccc(S(=O)(=O)N3CCC(C(=O)NCc4cccs4)CC3)cc2NC1=O (stereo unspecified) | 807 s
O=C(Cn1c(=O)oc2ccccc21)N1CCN(S(=O)(=O)C2CC2)CC1 | 670 s
O=C(NCc1ccc(F)c(Cl)c1)c1cn2ccccc2n1 | 723 s
CCOC(=O)c1c(S(=O)(=O)N2CCC(C(=O)Nc3ccccc3)CC2)c(C)n(CC)c1C | 795 s
CCCNC(=O)C1CCCN(c2ccc(SCC(=O)NCc3ccccc3Cl)nn2)C1 (stereo unspecified) | 661 s
O=C(c1ccc(-c2cccs2)nc1)N1CCCCC1 | 813 s
CCCNC(=O)CCc1nc2ccccc2n(CC(=O)Nc2ccc(CC)cc2)c1=O | 852 s
O=C(N[C@@H]1CN(Cc2cc(F)c(F)cc2F)C[C@H]1CO)C1CCC1 | 599 s
O=C(CN1C(=O)c2ccccc2C1=O)OCc1nc2ccccc2s1 | 840 s
CCOc1ccc(CNC(=O)c2cn3c(n2)CCCC3)cc1 | 606 s
O=C(Nc1ccc(N2CCN(c3ccccc3)C2=O)nc1)c1ccc(F)cc1 | 934 s
CC(NC(=O)CN1C(=O)C2CCCCN2c2ccc(S(=O)(=O)N(C)C)cc21)c1ccccc1 (stereo unspecified) | 902 s
CCCCn1c(=O)c2ccccc2n(Cc2nc(-c3ccc(OC(F)(F)F)cc3)no2)c1=O | 1280 s
O=C(CCc1nc2ccccc2[nH]1)N1CCC(c2noc(-c3ccncc3)n2)C1 (stereo unspecified) | 557 s
CN1C(=O)c2cccn2CC1C(=O)NC1CCCCC1 (stereo unspecified) | 681 s
CN1C(=O)C2(CCN(C(=O)CCc3ccccc3)C2)c2ccccc21 (stereo unspecified) | 803 s
COc1ccc(-c2ncc3c(n2)CCN(C(=O)c2ccc(Br)o2)C3)cc1 | 946 s
CC(=O)Nc1ccc2c(c1)Sc1ncccc1C(=O)N2C(C)C | 669 s
COc1cccc(CNC(=O)CCNc2cnc3cnccn23)c1 | 585 s
Cc1noc2ncnc(N3CCCC(C(=O)N4CCN(c5ccc(F)cc5)CC4)C3)c12 (stereo unspecified) | 846 s
CCn1c(=O)n(CC(=O)NCCN2CCC(C)CC2)c(=O)c2cnc(-c3ccc(Cl)cc3)nc21 | 776 s

Structure (SMILES) | RP-LC retention time
CC(C)n1nnc2cc(S(=O)(=O)N(C)CC(=O)N3CCN(c4ccccn4)CC3)ccc21 | 607 s
O=C(c1cc(F)ccc1F)N1CCN(C(=O)c2nnn3c2COC(c2ccc(Cl)cc2)C3)CC1 (stereo unspecified) | 937 s
COCCN1C(=O)c2ccccc2C(C(=O)NC2CCCC2)C1c1cccs1 (stereo unspecified) | 843 s
O=C(c1cccn1Cc1noc(C2CC2)n1)N1CCc2ccccc21 | 982 s
CCSc1nccc2c1ccn2CC(=O)NCc1ccc(Br)cc1 | 681 s
CCc1ccccc1NC(=O)N1C[C@H](c2nc(-c3ccccc3)no2)[C@@H](C)C1 | 1040 s
COc1ccc(CNC(=O)C2(c3ccc(NC(C)=O)cc3)CCC2)cc1 | 728 s
COc1ccc(-c2nnc(-c3ccc(C)c(S(=O)(=O)Nc4ccc(Cl)cn4)c3)o2)cc1OC | 918 s
Cc1ccc(S(=O)(=O)N2CCN(C(=O)c3ccccc3Cl)CC2)cc1C | 669 s
CS(=O)(=O)N1CCC(OC2CCN(C(=O)NCCc3ccccc3)CC2)CC1 | 724 s
Cc1ccc(Nc2c(-c3c(F)cccc3Cl)nc3ccc(Cl)cn23)cc1 | 994 s
Cc1cc(C(=O)N2CC(c3nc(-c4ccccn4)no3)C2)no1 | 639 s
Cc1cc(-c2c(C)sc(C)c2S(=O)(=O)NC2CCC(C)CC2)n[nH]1 (stereo unspecified) | 1140 s
CCCCn1cc(S(=O)(=O)Nc2ccc(F)c(C)c2)c2cccnc21 | 995 s
Cc1noc2ncn(CC(=O)NCc3cccc(F)c3)c(=O)c12 | 712 s
CSc1ccc(-c2nc3cccc(C)n3c2Nc2ccc3c(c2)OCO3)cc1 | 712 s
O=C(c1ccccc1F)N1CCC(n2nc(-c3ccsc3)ccc2=O)CC1 | 783 s
Cc1cc(C)n(CCC(=O)N2CCC(n3c(C)cnc3C)C2)n1 (stereo unspecified) | 563 s
CCc1ccc(N2C(=O)CN(S(C)(=O)=O)CC2(C)C(=O)NCc2ccc(C)cc2)cc1 (stereo unspecified) | 898 s
CCOCC(=O)N1CC(c2nc(-c3cccnc3)no2)C2(CCOCC2)C1 (stereo unspecified) | 622 s
Cc1nc(N2CCCC(C(=O)Nc3ccc4c(c3)OCCO4)C2)c2c(C)c(C)oc2n1 (stereo unspecified) | 846 s
Cc1ccc(CNC(=O)N(C)CC2CCOCC2)cc1 | 713 s
